Patent publication US10918713B2, “Epitopes from allergen proteins and methods and uses for immune response modulation” (LA JOLLA INSTITUTE FOR ALLERGY AND IMMUNOLOGY, priority 2012, dated 2021)
“And” between values parts separate entries of the source, which are not always exact repeats. Equal values may be shown once.

Tests used:
Type in all cases: cell-based, human
[1] = tested on: PBMC from allergic donors; assay: IL-5 ELISPOT with extract-stimulated short-term lines; settings: positive donor/peptide response
Protocol: (§1) Spots were counted by computer-assisted image analysis (Zeiss, KS-ELISPOT reader, Munich, Germany).
(§2) Each assay was performed in triplicate. The level of statistical significance was determined with a Student's t-test using the mean of triplicate values of the response against relevant pools or individual peptides versus the response against the DMSO control.

[2] = tested on: PBMC from allergic donors; assay: IFN-γ ELISPOT with extract-stimulated short-term lines; settings: positive donor/peptide response
Protocol: as §1, §2

[3] = tested on: PBMC from allergic donors; assay: Dual ELISPOT, total IL-5 and IFN-γ response (SFC); settings: sum of IFNg and IL-5
Protocol: as §1, §2

| Compound | Response (SFC/10^6) IL-5 ([1]; each table line is one donor) [SFC/10^6] | Response (SFC/10^6) IFNg ([2]; each table line is one donor) [SFC/10^6] | Response (SFC/10^6) Total ([3]; each table line is one donor) | Response (SFC/10^6) IL-5 ([1]; one donor per table line) | Response (SFC/10^6) IFNg ([2]; one donor per table line) | Response (SFC/10^6) Total ([3]; one donor per table line) |
| --- | --- | --- | --- | --- | --- | --- |
| 3337.0044 (IKLVKSSRPDCSEIP) | 233 | 90 | 90 SFC/10^6 and 233 SFC/10^6 | – | – | – |
| CC[C@H](C)[C@H](NC(=O)[C@H](CC(N)=O)NC(=O)[C@H](CC(C)C)NC(=O)[C@H](CC(N)=O)NC(=O)[C@H](CCCCN)NC(=O)[C@H](CO)NC(=O)[C@H](Cc1ccccc1)NC(=O)[C@@H](NC(=O)[C@@H](NC(=O)[C@H](Cc1c[nH]c2ccccc12)NC(=O)[C@H](CC(C)C)NC(=O)[C@H](CO)NC(=O)[C@H](CCCNC(=N)N)NC(=O)[C@@H](N)CCC(=O)O)[C@@H](C)CC)[C@@H](C)CC)C(=O)N[C@@H](CCCCN)C(=O)O [3324.0517] | – | – | – | 117 SFC/10^6 | 97 SFC/10^6 | 117 SFC/10^6 and 97 SFC/10^6 |
| CC[C@H](C)[C@H](NC(=O)[C@H](CC(N)=O)NC(=O)[C@@H](NC(=O)[C@H](CC(=O)O)NC(=O)[C@@H](N)CCC(=O)O)[C@@H](C)O)C(=O)N[C@@H](Cc1ccc(O)cc1)C(=O)N[C@@H](CC(N)=O)C(=O)N[C@@H](CO)C(=O)N[C@@H](CC(N)=O)C(=O)N[C@@H](CCC(=O)O)C(=O)N[C@@H](C)C(=O)N[C@@H](Cc1ccccc1)C(=O)N[C@@H](CCCCN)C(=O)N[C@H](C(=O)N[C@@H](CCC(=O)O)C(=O)O)C(C)C [3324.0606] | – | – | – | 427 SFC/10^6 | 240 SFC/10^6 and 73 SFC/10^6 | 427 SFC/10^6 and 240 SFC/10^6 and 73 SFC/10^6 |
| CC[C@H](C)[C@H](N)C(=O)N[C@@H](Cc1ccccc1)C(=O)N[C@@H](CO)C(=O)N[C@@H](CCC(N)=O)C(=O)N[C@@H](CC(N)=O)C(=O)N[C@@H](CCSC)C(=O)N[C@@H](CC(N)=O)C(=O)N[C@H](C(=O)N[C@@H](CCCCN)C(=O)N[C@@H](CC(C)C)C(=O)N[C@@H](CCC(N)=O)C(=O)N[C@@H](CCSC)C(=O)N1CCC[C@H]1C(=O)N[C@@H](CC(C)C)C(=O)N[C@@H](Cc1ccc(O)cc1)C(=O)O)[C@@H](C)CC [3324.0607] | – | – | – | 2607 SFC/10^6 | 70 SFC/10^6 | 2607 SFC/10^6 and 70 SFC/10^6 |
| CC[C@H](C)[C@H](NC(=O)[C@H](CC(N)=O)NC(=O)[C@H](CCSC)NC(=O)[C@H](CC(N)=O)NC(=O)[C@H](CCC(N)=O)NC(=O)[C@H](CO)NC(=O)[C@H](Cc1ccccc1)NC(=O)[C@@H](NC(=O)[C@@H](NC(=O)[C@H](Cc1c[nH]c2ccccc12)NC(=O)[C@H](CC(C)C)NC(=O)[C@H](C)NC(=O)[C@H](CCCCN)NC(=O)[C@@H](N)CCC(=O)O)[C@@H](C)CC)[C@@H](C)CC)C(=O)N[C@@H](CCCCN)C(=O)O [3324.0615] | – | – | – | 67 SFC/10^6 | 333 SFC/10^6 | 400 SFC/10^6 |
| CC[C@H](C)[C@H](N)C(=O)N[C@H](C(=O)N[C@@H](Cc1ccccc1)C(=O)N[C@@H](CO)C(=O)N[C@@H](CCC(N)=O)C(=O)N[C@@H](CC(N)=O)C(=O)N[C@@H](CCSC)C(=O)N[C@@H](CC(N)=O)C(=O)N[C@H](C(=O)N[C@@H](CCCCN)C(=O)N[C@@H](CC(C)C)C(=O)N[C@@H](CCCCN)C(=O)N[C@@H](CCSC)C(=O)N1CCC[C@H]1C(=O)N[C@@H](CC(C)C)C(=O)O)[C@@H](C)CC)[C@@H](C)CC [3324.0618] | – | – | – | 3067 SFC/10^6 | 80 SFC/10^6 and 73 SFC/10^6 | 80 SFC/10^6 and 3067 SFC/10^6 and 73 SFC/10^6 |
| CC[C@H](C)[C@H](NC(=O)[C@@H](N)CC(=O)O)C(=O)N[C@@H](Cc1ccc(O)cc1)C(=O)N[C@@H](CC(N)=O)C(=O)N[C@@H](Cc1ccc(O)cc1)C(=O)N[C@@H](CCSC)C(=O)N[C@@H](CCC(=O)O)C(=O)N1CCC[C@H]1C(=O)N[C@@H](Cc1ccc(O)cc1)C(=O)N[C@H](C(=O)N[C@@H](CO)C(=O)N[C@@H](CCCCN)C(=O)N[C@H](C(=O)N[C@@H](CC(=O)O)C(=O)N1CCC[C@H]1C(=O)O)C(C)C)C(C)C [3324.0663] | – | – | – | 302 SFC/10^6 and 107 SFC/10^6 | 73 SFC/10^6 | 73 SFC/10^6 and 302 SFC/10^6 and 107 SFC/10^6 |
| CC(C)C[C@H](NC(=O)[C@H](Cc1ccc(O)cc1)NC(=O)[C@H](C)NC(=O)[C@H](CO)NC(=O)[C@H](CCC(=O)O)NC(=O)[C@@H](NC(=O)[C@H](C)NC(=O)[C@H](C)NC(=O)[C@@H](NC(=O)CNC(=O)[C@@H](N)CO)C(C)C)[C@@H](C)O)C(=O)N[C@@H](C)C(=O)N[C@@H](Cc1ccc(O)cc1)C(=O)N[C@@H](CCCNC(=N)N)C(=O)N[C@@H](CC(N)=O)C(=O)O [3324.0829] | – | – | – | 347 SFC/10^6 and 167 SFC/10^6 | 340 SFC/10^6 and 237 SFC/10^6 | 687 SFC/10^6 and 403 SFC/10^6 |
